In data set [1] the target is T1, Peroxisome proliferator-activated receptor alpha (Homo sapiens, UniProt Q07869).
T1 sequence (Q07869 whole entry): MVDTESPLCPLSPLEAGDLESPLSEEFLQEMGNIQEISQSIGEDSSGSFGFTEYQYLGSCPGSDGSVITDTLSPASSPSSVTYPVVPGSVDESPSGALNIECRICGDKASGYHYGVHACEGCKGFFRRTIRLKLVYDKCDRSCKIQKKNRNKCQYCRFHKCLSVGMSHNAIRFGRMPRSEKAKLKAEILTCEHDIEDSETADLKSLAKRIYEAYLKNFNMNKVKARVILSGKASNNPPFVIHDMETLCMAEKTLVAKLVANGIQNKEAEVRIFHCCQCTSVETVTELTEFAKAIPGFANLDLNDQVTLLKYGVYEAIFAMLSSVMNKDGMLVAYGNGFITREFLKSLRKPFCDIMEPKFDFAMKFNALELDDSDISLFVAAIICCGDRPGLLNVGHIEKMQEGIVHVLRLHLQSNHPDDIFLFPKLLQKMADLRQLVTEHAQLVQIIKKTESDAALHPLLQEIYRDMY

A further data set concerns the target Cytochrome P450 2C9 (Homo sapiens, UniProt P11712). Nature of the data set: Inhibition of CYP2C9. Type of data set: ADME.
In data set [2] the target is T2, Peroxisome proliferator-activated receptor gamma (Homo sapiens, UniProt P37231).
T2 sequence (P37231 whole entry): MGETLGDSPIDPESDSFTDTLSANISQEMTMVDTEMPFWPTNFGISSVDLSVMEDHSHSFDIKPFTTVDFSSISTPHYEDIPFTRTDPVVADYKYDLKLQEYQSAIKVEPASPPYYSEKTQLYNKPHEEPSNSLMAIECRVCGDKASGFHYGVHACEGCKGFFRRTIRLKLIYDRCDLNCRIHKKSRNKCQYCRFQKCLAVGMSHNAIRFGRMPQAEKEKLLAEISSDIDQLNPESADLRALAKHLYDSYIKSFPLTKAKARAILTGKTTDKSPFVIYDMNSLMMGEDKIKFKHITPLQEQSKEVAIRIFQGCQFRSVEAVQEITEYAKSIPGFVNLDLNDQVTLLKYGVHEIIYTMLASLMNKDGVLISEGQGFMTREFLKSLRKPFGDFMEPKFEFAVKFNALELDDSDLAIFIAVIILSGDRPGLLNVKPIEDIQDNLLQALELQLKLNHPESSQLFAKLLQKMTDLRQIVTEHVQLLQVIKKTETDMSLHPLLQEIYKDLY
Nature of the data set: Inhibition of PPARgamma.

Data set [3] addresses T3, Cytochrome P450 3A4 (Homo sapiens, UniProt P08684). Nature of the data set: Inhibition of CYP3A4 in presence of 7-benzyloxy-4-trifluoromethyl coumarin substrate. Format: ADME.
The target of a further data set is Cytochrome P450 2C19 (Homo sapiens, UniProt P33261). Nature of the data set: Inhibition of CYP2C19. Format: ADME.
Chain of Cytochrome P450 2C19 (P33261 whole entry): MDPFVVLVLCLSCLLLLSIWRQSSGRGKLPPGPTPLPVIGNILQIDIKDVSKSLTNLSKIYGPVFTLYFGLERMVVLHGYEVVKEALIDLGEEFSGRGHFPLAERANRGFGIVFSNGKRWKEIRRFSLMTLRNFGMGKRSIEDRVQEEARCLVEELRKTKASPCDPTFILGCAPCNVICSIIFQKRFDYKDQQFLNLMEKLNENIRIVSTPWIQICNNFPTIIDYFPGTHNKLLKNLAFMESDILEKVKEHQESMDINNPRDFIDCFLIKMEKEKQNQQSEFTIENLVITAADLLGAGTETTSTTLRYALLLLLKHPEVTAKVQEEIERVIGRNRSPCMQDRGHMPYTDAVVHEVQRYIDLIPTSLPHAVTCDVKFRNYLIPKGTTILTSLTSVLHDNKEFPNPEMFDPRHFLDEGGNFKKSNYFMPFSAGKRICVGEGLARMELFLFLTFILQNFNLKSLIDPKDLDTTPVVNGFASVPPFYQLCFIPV
Data set [4] has as its target T4, Peroxisome proliferator-activated receptor alpha (Homo sapiens) (UniProt Q07869).
T4 sequence (whole entry): T1 sequence (Q07869 whole entry)
Kind of data set: Agonist activity at PPARalpha in HEK293 cells at 1 uM by GAL4 transactivation assay relative to GW-2331. Type of data set: functional, cell-based.

Data set [5] addresses T1, Peroxisome proliferator-activated receptor alpha. Nature of the data set: Agonist activity at PPARalpha in HEK293 cells by GAL4 transactivation assay. Type of data set: functional, cell-based.
In data set [6] the target is T2, Peroxisome proliferator-activated receptor gamma.
Description: Agonist activity at PPARgamma in HEK293 cells by GAL4 transactivation assay
In data set [7] the target is T3, Cytochrome P450 3A4. Kind of data set: Inhibition of CYP3A4 in presence of 7-benzyloxyresorufin substrate. Format: ADME.
The nature of data set [8]: Drug concentration in db/db mouse plasma at 10 mg/kg/day, po qd after 14 days. Format: ADME, organism-based. Further details: route oral.
Data set [9] concerns Mus musculus. Nature of the data set: Decrease in plasma glucose level in db/db mouse at 10 mg/kg/day, po qd after 14 days. Type of data set: functional. Further details: scale not given: the % may be the effect or the level left.
The test system of data set [10] is Mus musculus. Kind of data set: Decrease in plasma triglyceride level in db/db mouse at 10 mg/kg/day, po qd after 14 days. Type of data set: functional. Also noted: scale not given: the % may be the effect or the level left.
Another data set has as its system Adipose tissue. Nature of the data set: Drug concentration in db/db mouse adipose at 10 mg/kg/day, po qd after 14 days. Format: ADME, organism-based. Conditions: in vivo, 336 h. Also noted: route oral.
Another data set has as its system Liver. Nature of the data set: Drug concentration in db/db mouse liver at 10 mg/kg/day, po qd after 14 days. Format: ADME, organism-based. Also noted: route oral. Conditions: in vivo, 336 h.
Data set [11] addresses Voltage-gated inwardly rectifying potassium channel KCNH2 (Homo sapiens, UniProt Q12809). Nature of the data set: Inhibition of human ERG by FLIPR assay.
Data set [12] has as its system Mus musculus. Nature of the data set: Decrease in plasma triglyceride level in db/db mouse at 10 mg/kg/day, po qd after 3 weeks. Format: functional. Also noted: scale not given: the % may be the effect or the level left.

The structures appear in SMILES notation. Where only a bound is given, the exact number is not on record here.

T3 sequence (P08684 whole entry): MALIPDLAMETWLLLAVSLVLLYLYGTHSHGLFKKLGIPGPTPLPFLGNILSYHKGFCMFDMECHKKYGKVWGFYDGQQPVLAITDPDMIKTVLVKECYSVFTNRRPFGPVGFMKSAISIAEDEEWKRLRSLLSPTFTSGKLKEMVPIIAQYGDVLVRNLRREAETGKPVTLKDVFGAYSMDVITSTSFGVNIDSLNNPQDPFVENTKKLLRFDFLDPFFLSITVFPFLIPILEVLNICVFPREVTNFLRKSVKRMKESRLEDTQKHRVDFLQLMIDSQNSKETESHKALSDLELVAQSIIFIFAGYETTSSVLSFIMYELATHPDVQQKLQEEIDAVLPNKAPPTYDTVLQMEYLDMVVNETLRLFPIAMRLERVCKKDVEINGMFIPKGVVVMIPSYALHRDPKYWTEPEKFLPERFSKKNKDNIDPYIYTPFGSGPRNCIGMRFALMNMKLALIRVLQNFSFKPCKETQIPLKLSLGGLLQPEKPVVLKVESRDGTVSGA
Chain of Cytochrome P450 2C9 (P11712 whole entry): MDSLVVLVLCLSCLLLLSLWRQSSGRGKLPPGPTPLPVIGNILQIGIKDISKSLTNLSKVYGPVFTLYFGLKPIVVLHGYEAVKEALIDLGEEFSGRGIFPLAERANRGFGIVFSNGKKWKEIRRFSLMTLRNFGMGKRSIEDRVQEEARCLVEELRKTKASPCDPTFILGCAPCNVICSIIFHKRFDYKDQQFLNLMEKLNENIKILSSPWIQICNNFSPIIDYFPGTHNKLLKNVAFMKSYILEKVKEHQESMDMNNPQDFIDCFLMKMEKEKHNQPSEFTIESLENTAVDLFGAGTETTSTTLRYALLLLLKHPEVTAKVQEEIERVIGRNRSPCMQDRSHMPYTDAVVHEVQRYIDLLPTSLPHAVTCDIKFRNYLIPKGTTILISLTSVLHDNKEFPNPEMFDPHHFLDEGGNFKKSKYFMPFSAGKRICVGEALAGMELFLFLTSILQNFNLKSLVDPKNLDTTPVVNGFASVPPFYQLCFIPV
Chain of Voltage-gated inwardly rectifying potassium channel KCNH2 (Q12809 whole entry): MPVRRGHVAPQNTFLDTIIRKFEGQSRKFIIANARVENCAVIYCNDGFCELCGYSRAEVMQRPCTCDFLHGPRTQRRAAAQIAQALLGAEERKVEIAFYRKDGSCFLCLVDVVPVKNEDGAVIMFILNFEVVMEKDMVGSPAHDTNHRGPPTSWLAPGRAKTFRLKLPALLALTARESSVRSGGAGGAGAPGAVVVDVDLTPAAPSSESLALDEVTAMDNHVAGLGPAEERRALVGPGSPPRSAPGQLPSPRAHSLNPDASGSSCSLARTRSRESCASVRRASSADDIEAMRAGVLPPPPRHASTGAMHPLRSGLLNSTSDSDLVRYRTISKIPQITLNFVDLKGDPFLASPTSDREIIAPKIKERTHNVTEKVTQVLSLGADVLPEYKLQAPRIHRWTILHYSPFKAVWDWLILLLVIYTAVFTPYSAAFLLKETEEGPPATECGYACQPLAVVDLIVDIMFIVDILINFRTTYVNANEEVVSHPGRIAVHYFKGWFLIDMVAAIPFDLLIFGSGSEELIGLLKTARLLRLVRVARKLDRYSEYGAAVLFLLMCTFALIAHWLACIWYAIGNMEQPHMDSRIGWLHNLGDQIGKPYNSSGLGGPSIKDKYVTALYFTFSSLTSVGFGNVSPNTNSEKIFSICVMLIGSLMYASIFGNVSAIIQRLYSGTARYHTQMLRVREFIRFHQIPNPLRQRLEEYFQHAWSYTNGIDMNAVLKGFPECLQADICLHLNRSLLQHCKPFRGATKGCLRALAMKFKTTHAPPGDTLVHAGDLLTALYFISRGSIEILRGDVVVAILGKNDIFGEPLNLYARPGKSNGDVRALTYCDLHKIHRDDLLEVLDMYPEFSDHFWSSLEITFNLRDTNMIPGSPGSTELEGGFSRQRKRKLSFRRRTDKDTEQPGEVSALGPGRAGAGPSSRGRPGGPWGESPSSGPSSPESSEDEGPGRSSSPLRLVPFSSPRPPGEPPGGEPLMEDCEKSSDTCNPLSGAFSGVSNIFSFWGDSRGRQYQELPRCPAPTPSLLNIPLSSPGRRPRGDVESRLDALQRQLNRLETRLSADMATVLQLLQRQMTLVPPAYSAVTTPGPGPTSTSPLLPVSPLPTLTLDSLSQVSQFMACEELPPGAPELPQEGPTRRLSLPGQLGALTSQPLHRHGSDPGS

In the case of `Cc1oc(-c2ccc(Cl)cc2)nc1CCOc1cccc(C[C@@H]2C(=O)N(c3ccc(C(C)(C)C)cc3)[C@@H]2C(=O)O)c1`, the IC50 was found to be 480 nM in data set [1]; 410 nM against Cytochrome P450 2C9; 670 nM in data set [2]; 4700 nM on Cytochrome P450 3A4 [3]; 2800 nM against Cytochrome P450 2C19. In [4], the Intrinsic activity is more than 90%. In addition, the EC50 in [5] amounted to 5 nM; in data set [6] it was 60 nM.

With `CCCCCCCN(CCc1ccc(O[C@@](C)(CC)C(=O)O)cc1)C(=O)Nc1ccc(F)cc1F`, the results for the IC50 in data set [1] and in [2] were 740 nM and 600 nM, respectively. The Intrinsic activity in data set [4] was more than 90%. The EC50 in data set [5] came out at 45 nM; in data set [6], 243 nM.

As to `Cc1oc(-c2ccccc2)nc1CCOc1ccc(C[C@H]2C(=O)N(c3ccc(C(C)(C)C)cc3)[C@H]2C(=O)O)cc1`, the IC50 in data set [1] was more than 15000 nM; on Cytochrome P450 3A4 [7], more than 40000 nM; at Cytochrome P450 2C9, 3000 nM; in [2], 4240 nM; on Cytochrome P450 3A4 [3], more than 40000 nM. The EC50 in data set [5] worked out at 970 nM; in [6], 500 nM.

Regarding `COc1ccc(OC(=O)N(CC(=O)O)Cc2ccc(OCCc3nc(-c4ccccc4)oc3C)cc2)cc1` [MURAGLITAZAR], in data set [8], the concentration at 336 h amounted to 103000 nM. The Activity with Mus musculus [9] is -54%; in the data set on Mus musculus [10] it was -33%. In addition, the Drug uptake with Adipose tissue is 3 nmol/g; in the data set on Liver it was 25 nmol/g.

On to `Cc1oc(-c2ccccc2)nc1CCOc1cccc(C[C@H]2C(=O)N(c3ccc(C(C)(C)C)cc3)[C@H]2C(=O)O)c1`, for which the IC50 in data set [1] is more than 15000 nM; against Cytochrome P450 2C9, 670 nM; in data set [2], 800 nM; on Cytochrome P450 3A4 [3] it was 20000 nM. For the same compound, the results for the EC50 in data set [5] and in [6] were 5400 nM and 410 nM, respectively.

As to `COc1ccc(N2C(=O)[C@@H](Cc3ccc(OCCc4nc(-c5ccccc5)oc4C)cc3)[C@H]2C(=O)O)cc1`, the IC50 in data set [1] was 730 nM; at Cytochrome P450 3A4 [7], 26000 nM; against Cytochrome P450 2C9, 14000 nM; in [2], 40 nM; on Cytochrome P450 3A4 [3], 33000 nM; in data set [11], 54000 nM. In addition, the Intrinsic activity in [4] was more than 90%. In addition, the results for the EC50 in data set [5] and in [6] were 150 nM and 20 nM, respectively.

For `COc1ccc(N2C(=O)[C@H](Cc3ccc(OCCc4nc(-c5ccccc5)oc4C)cc3)[C@@H]2C(=O)O)cc1`, the IC50 is more than 15000 nM in data set [1] and 3400 nM in data set [2]. For the same compound, the concentration giving a half-maximal response (EC50) in [5] was more than 7500 nM.

For the compound `COc1ccc(N2C(=O)[C@@H](Cc3cccc(OCCc4nc(-c5ccccc5)oc4C)c3)[C@H]2C(=O)O)cc1`, the IC50 is 360 nM in [1]; 830 nM on Cytochrome P450 3A4 [7]; 2200 nM on Cytochrome P450 2C9; 100 nM in data set [2]; 50000 nM on Cytochrome P450 3A4 [3]. For the same compound, the concentration at 336 h in [8] turned out to be 2800 nM. Also, the Activity with Mus musculus [9] was -43%; in the data set with Mus musculus [10], 0%. This compound also had an Intrinsic activity in data set [4] of more than 90%. For the same compound, the values for the Drug uptake with Adipose tissue and in the data set with Liver were 0.29 nmol/g and 10.4 nmol/g, respectively. For the same compound, the EC50 is 70 nM in data set [5] and 90 nM in data set [6].

Consider `Cc1oc(-c2cccc(Cl)c2)nc1CCOc1cccc(C[C@@H]2C(=O)N(c3ccc(C(C)(C)C)cc3)[C@@H]2C(=O)O)c1`, for which the IC50 in [1] was 860 nM; at Cytochrome P450 3A4 [7], 20000 nM; against Cytochrome P450 2C9, 670 nM; in data set [2], 250 nM; at Cytochrome P450 2C19, 5300 nM. Besides, in data set [4], the Intrinsic activity is more than 90%. Further, the EC50 in data set [5] was 60 nM; in data set [6] it was 100 nM.

Turning to `COc1ccc(N2C(=O)[C@H](Cc3cccc(OCCc4nc(-c5ccccc5)oc4C)c3)[C@@H]2C(=O)O)cc1`, the IC50 in [1] was more than 15000 nM; in data set [2], 1100 nM. Besides, the figures for the EC50 in data set [5] and in data set [6] were more than 7500 nM and 840 nM, respectively.

On to `Cc1oc(-c2ccccc2)nc1CCOc1cccc(C[C@@H]2C(=O)N(c3ccc(C(C)(C)C)cc3)[C@@H]2C(=O)O)c1`, for which the IC50 was 80 nM in [1]; 19000 nM at Cytochrome P450 3A4 [7]; 230 nM at Cytochrome P450 2C9; 40 nM in data set [2]; 17000 nM at Cytochrome P450 3A4 [3]. The Activity is reported as 61% in the data set with Mus musculus [12], -17% in the data set on Mus musculus [9] and -52% in the data set with Mus musculus [10]. In [8], this compound registered a concentration at 336 h of 870 nM. The values for the EC50 in [5] and in [6] were 40 nM and 120 nM, respectively. In the data set on Liver, this compound returned a Drug uptake of 7.4 nmol/g.

Consider `Cc1oc(-c2ccccc2)nc1CCOc1cccc(CC2C(=O)N(c3ccc(F)cc3)C2C(=O)O)c1` (racemic), for which the figures for the IC50 in [1] and in [2] were 2400 nM and 180 nM, respectively. Further, in [4], the Intrinsic activity was more than 90%. Moreover, the figures for the EC50 in data set [5] and in data set [6] were 110 nM and 30 nM, respectively.

Turning to `Cc1oc(-c2ccccc2)nc1CCOc1cccc(CC2C(=O)N(c3ccc(Cl)cc3)C2C(=O)O)c1` (racemic), the IC50 in [1] was found to be 1400 nM; in data set [2] it was 360 nM. In [4], this compound displayed an Intrinsic activity of more than 90%. The EC50 was 230 nM in [5] and 130 nM in data set [6].

Regarding `Cc1oc(-c2ccccc2)nc1CCOc1ccc(C[C@@H]2C(=O)N(c3ccc(C(C)(C)C)cc3)[C@@H]2C(=O)O)cc1`, the IC50 in data set [1] was 790 nM; at Cytochrome P450 3A4 [7] it was 28000 nM; on Cytochrome P450 2C9, 2300 nM; in [2], 110 nM; on Cytochrome P450 3A4 [3], more than 40000 nM. In data set [4], this compound came in with an Intrinsic activity of more than 90%. Moreover, the figures for the EC50 in data set [5] and in [6] were 10 nM and 4 nM, respectively.

For the compound `COc1ccc(N2C(=O)C(Cc3cccc(OCCc4nc(-c5ccccc5)oc4C)c3)C2C(=O)O)cc1` (racemic), the IC50 turned out to be 690 nM in [1] and 160 nM in data set [2]. Moreover, the Intrinsic activity in data set [4] is more than 90%. Further, the EC50 in data set [5] came out at 140 nM; in [6] it was 180 nM.

Take `COc1cccc(-c2nc(CCOc3cccc(C[C@@H]4C(=O)N(c5ccc(C(C)(C)C)cc5)[C@@H]4C(=O)O)c3)c(C)o2)c1`: the IC50 was determined as 520 nM in data set [1]; 19000 nM at Cytochrome P450 3A4 [7]; 650 nM at Cytochrome P450 2C9; 110 nM in data set [2]; 8300 nM against Cytochrome P450 2C19. This compound also registered an Intrinsic activity in data set [4] of more than 90%. The EC50 in [5] and in data set [6] was 40 nM each time.

For `COc1ccc(-c2nc(CCOc3cccc(C[C@@H]4C(=O)N(c5ccc(C(C)(C)C)cc5)[C@@H]4C(=O)O)c3)c(C)o2)cc1`, the figures for the IC50 (in [1]; at Cytochrome P450 3A4 [7]; in data set [2]) were 460 nM, 12000 nM and 220 nM, respectively. Besides, the Intrinsic activity in [4] is more than 90%. The EC50 was found to be 8 nM in data set [5] and 40 nM in data set [6].

For `COc1ccc(N2C(=O)C(Cc3cccc(OCCc4nc(-c5ccccc5)oc4C)c3)C2C(=O)O)cn1` (racemic), the IC50 in data set [1] was determined as 1300 nM; in [2], 230 nM. Further, the Intrinsic activity in [4] is more than 90%. The figures for the EC50 in data set [5] and in data set [6] were 90 nM and 70 nM, respectively.
